Measurements published in US20190071796A1, “PROCESS AND APPARATUS FOR MAKING ALIGNED OR TWISTED ELECTROSPUN FIBERS AND DEVICES” (The Johns Hopkins University, priority 2016, published 2019).

Experiment: In vitro release of sunitinib from PLGA nanofiber-based mesh
Format: physicochemical
Conditions: 10% sunitinib/PLGA (w/w) (FIG. 14)

- duration of in vitro sustained release: 30 days
SMILES: CCN(CC)CCNC(=O)c1c(C)[nH]c(/C=C2\C(=O)Nc3ccc(F)cc32)c1C [sunitinib, Sunitinib malate]
